From US8163702B2, “Treatment of melanoma” (SciClone Pharmaceuticals, Inc., priority 2006, dated 2012)

Test system: murine B16 melanoma
Assay: Antitumor effect in murine B16 melanoma model, tumor size and tumor weight (Example 2)
Assay type: in vivo, C57BL/6 mice
Procedure: As per aseptic tissue culture procedures, one vial of B16 melanoma cells (supplied by Cell Culture Center of CAMS) was thawed and centrifuged at 1000 rpm, 20-25° C. for 5 minutes. The cell pellets were suspended in 0.1-0.5 mL normal saline (NS) and subcutaneously injected into the right axilla of each mouse (approximately 1×10^6 cells/mouse). When the tumor diameter was 1 cm approximately (measured by vernier caliper), the animals were euthanized with CO2 asphyxiation and the tumor was excised. Tumor cells were suspended in normal saline as previously described and the cell adaptation cycle was repeated once.
On Day 0, 1×10^6 B16 cells in a volume of 0.1 mL normal saline were subcutaneously injected into the right axillary area of the mouse. The day of tumor inoculation was defined as Day 0.
Dosing was initiated on Day 1.
Observations were recorded daily for mortality and moribundity. […] The tumors were excised, separated, and weighed.
Tumor volume was calculated using the following formula: Tumor Volume=Length×Width×Width/2 Tumor volume inhibition rate (IR) was calculated according to the formula: IR(TV)=(TVvehicle−TVdrug treated)/TVvehicle×100% TV is the tumor volume on the day of measurement.
The antitumor effect of the test article was also evaluated by tumor weight. The tumor weight of each mouse was recorded after euthanasia, and the inhibition rate of tumor weight was calculated according to the formula: IR(TW)=(Tumor weightvehicle−Tumor weightdrug treated)/Tumor weightvehicle×100%

[1] = Day 9, SCV-07 0.01 mg/kg/day sc
[2] = Day 9, mouse F1, SCV-07 0.1 mg/kg sc
[3] = Day 9, mouse F1, SCV-07 5.0 mg/kg sc
[4] = Day 9, mouse F2, SCV-07 0.01 mg/kg sc
[5] = Day 9, mouse F2, SCV-07 0.1 mg/kg sc
[6] = Day 9, mouse F2, SCV-07 1.0 mg/kg sc
[7] = Day 9, mouse F2, SCV-07 5.0 mg/kg sc
[8] = Day 9, mouse F3, SCV-07 0.1 mg/kg sc
[9] = Day 9, mouse F3, SCV-07 1.0 mg/kg sc
[10] = Day 9, mouse F4, SCV-07 0.01 mg/kg sc
[11] = Day 9, mouse F4, SCV-07 0.1 mg/kg sc
[12] = Day 9, mouse F4, SCV-07 1.0 mg/kg sc
[13] = Day 9, mouse F4, SCV-07 5.0 mg/kg sc
[14] = Day 9, mouse F5, SCV-07 0.01 mg/kg sc
[15] = Day 9, mouse F5, SCV-07 0.1 mg/kg sc
[16] = Day 9, mouse F5, SCV-07 1.0 mg/kg sc
[17] = Day 9, mouse F5, SCV-07 5.0 mg/kg sc
[18] = Day 9, mouse M1, SCV-07 0.01 mg/kg sc
[19] = Day 9, mouse M1, SCV-07 0.1 mg/kg sc
[20] = Day 9, mouse M1, SCV-07 1.0 mg/kg sc
[21] = Day 9, mouse M1, SCV-07 5.0 mg/kg sc
[22] = Day 9, mouse M2, SCV-07 0.01 mg/kg sc
[23] = Day 9, mouse M2, SCV-07 1.0 mg/kg sc
[24] = Day 9, mouse M3, SCV-07 0.01 mg/kg sc
[25] = Day 9, mouse M3, SCV-07 1.0 mg/kg sc
[26] = Day 9, mouse M3, SCV-07 5.0 mg/kg sc
[27] = Day 9, mouse M4, SCV-07 0.1 mg/kg sc
[28] = Day 9, mouse M4, SCV-07 1.0 mg/kg sc
[29] = Day 9, mouse M4, SCV-07 5.0 mg/kg sc
[30] = Day 9, mouse M5, SCV-07 0.01 mg/kg sc
[31] = Day 9, mouse M5, SCV-07 0.1 mg/kg sc
[32] = Day 12, SCV-07 0.01 mg/kg/day sc
[33] = Day 12, SCV-07 0.1 mg/kg/day sc
[34] = Day 12, SCV-07 1.0 mg/kg/day sc
[35] = Day 12, SCV-07 5.0 mg/kg/day sc
[36] = Day 12, mouse F1, SCV-07 0.01 mg/kg sc
[37] = Day 12, mouse F1, SCV-07 0.1 mg/kg sc
[38] = Day 12, mouse F1, SCV-07 1.0 mg/kg sc
[39] = Day 12, mouse F1, SCV-07 5.0 mg/kg sc
[40] = Day 12, mouse F2, SCV-07 0.01 mg/kg sc
[41] = Day 12, mouse F2, SCV-07 0.1 mg/kg sc
[42] = Day 12, mouse F2, SCV-07 1.0 mg/kg sc

SMILES: N[C@H](CCC(=O)N[C@@H](Cc1c[nH]c2ccccc12)C(=O)O)C(=O)O [SCV-07, γ-D-glutamyl-L-tryptophan]
- Tumor Volume (Mean ± SD) (Day 3, SCV-07 0.01 mg/kg/day sc, not measurable defined as 0): 0 cm^3
- Tumor Volume (Mean ± SD) (Day 3, SCV-07 0.1 mg/kg/day sc, not measurable defined as 0): 0 cm^3
- Tumor Volume (Mean ± SD) (Day 3, SCV-07 1.0 mg/kg/day sc, not measurable defined as 0): 0 cm^3
- Tumor Volume (Mean ± SD) (Day 3, SCV-07 5.0 mg/kg/day sc, not measurable defined as 0): 0 cm^3
- Tumor Volume (Mean ± SD) (Day 6, SCV-07 0.01 mg/kg/day sc, not measurable defined as 0): 0 cm^3
- Tumor Volume (Mean ± SD) (Day 6, SCV-07 0.1 mg/kg/day sc, not measurable defined as 0): 0 cm^3
- Tumor Volume (Mean ± SD) (Day 6, SCV-07 1.0 mg/kg/day sc, not measurable defined as 0): 0 cm^3
- Tumor Volume (Mean ± SD) (Day 6, SCV-07 5.0 mg/kg/day sc, not measurable defined as 0): 0 cm^3
- IR (tumor volume inhibition rate) [1]: −4.3%
- Tumor Volume (Mean ± SD) [1]: 0.045 ± 0.042 cm^3
- IR (tumor volume inhibition rate) (Day 9, SCV-07 0.1 mg/kg/day sc): 11.5%
- Tumor Volume (Mean ± SD) (Day 9, SCV-07 0.1 mg/kg/day sc): 0.039 ± 0.038 cm^3
- IR (tumor volume inhibition rate) (Day 9, SCV-07 1.0 mg/kg/day sc): 19.7%
- Tumor Volume (Mean ± SD) (Day 9, SCV-07 1.0 mg/kg/day sc): 0.035 ± 0.036 cm^3
- IR (tumor volume inhibition rate) (Day 9, SCV-07 5.0 mg/kg/day sc): −11.0%
- Tumor Volume (Mean ± SD) (Day 9, SCV-07 5.0 mg/kg/day sc): 0.048 ± 0.036 cm^3
- Tumor measurements L [2]: 0.5 cm
- Tumor measurements W [2]: 0.5 cm
- Tumor volumes [2]: 0.06 cm^3
- Tumor measurements L [3]: 0.5 cm
- Tumor measurements W [3]: 0.5 cm
- Tumor volumes [3]: 0.06 cm^3
- Tumor measurements L [4]: 0.5 cm
- Tumor measurements W [4]: 0.5 cm
- Tumor volumes [4]: 0.06 cm^3
- Tumor measurements L [5]: 0.5 cm
- Tumor measurements W [5]: 0.5 cm
- Tumor volumes [5]: 0.06 cm^3
- Tumor measurements L [6]: 0.5 cm
- Tumor measurements W [6]: 0.5 cm
- Tumor volumes [6]: 0.06 cm^3
- Tumor measurements L [7]: 0.5 cm
- Tumor measurements W [7]: 0.5 cm
- Tumor volumes [7]: 0.06 cm^3
- Tumor measurements L [8]: 0.5 cm
- Tumor measurements W [8]: 0.5 cm
- Tumor volumes [8]: 0.06 cm^3
- Tumor measurements L [9]: 0.6 cm
- Tumor measurements W [9]: 0.6 cm
- Tumor volumes [9]: 0.11 cm^3
- Tumor measurements L [10]: 0.5 cm
- Tumor measurements W [10]: 0.5 cm
- Tumor volumes [10]: 0.06 cm^3
- Tumor measurements L [11]: 0.6 cm
- Tumor measurements W [11]: 0.6 cm
- Tumor volumes [11]: 0.11 cm^3
- Tumor measurements L [12]: 0.3 cm
- Tumor measurements W [12]: 0.3 cm
- Tumor volumes [12]: 0.01 cm^3
- Tumor measurements L [13]: 0.6 cm
- Tumor measurements W [13]: 0.6 cm
- Tumor volumes [13]: 0.11 cm^3
- Tumor measurements L [14]: 0.6 cm
- Tumor measurements W [14]: 0.6 cm
- Tumor volumes [14]: 0.11 cm^3
- Tumor measurements L [15]: 0 cm
- Tumor measurements W [15]: 0 cm
- Tumor volumes [15]: 0.00 cm^3
- Tumor measurements L [16]: 0.5 cm
- Tumor measurements W [16]: 0.5 cm
- Tumor volumes [16]: 0.06 cm^3
- Tumor measurements L [17]: 0.5 cm
- Tumor measurements W [17]: 0.5 cm
- Tumor volumes [17]: 0.06 cm^3
- Tumor measurements L [18]: 0.6 cm
- Tumor measurements W [18]: 0.6 cm
- Tumor volumes [18]: 0.11 cm^3
- Tumor measurements L [19]: 0.3 cm
- Tumor measurements W [19]: 0.3 cm
- Tumor volumes [19]: 0.01 cm^3
- Tumor measurements L [20]: 0.3 cm
- Tumor measurements W [20]: 0.3 cm
- Tumor volumes [20]: 0.01 cm^3
- Tumor measurements L [21]: 0.5 cm
- Tumor measurements W [21]: 0.5 cm
- Tumor volumes [21]: 0.06 cm^3
- Tumor measurements L [22]: 0.4 cm
- Tumor measurements W [22]: 0.4 cm
- Tumor volumes [22]: 0.03 cm^3
- Tumor volumes (Day 9, mouse M2, SCV-07 0.1 mg/kg sc): 0.00 cm^3
- Tumor measurements L [23]: 0.5 cm
- Tumor measurements W [23]: 0.5 cm
- Tumor volumes [23]: 0.06 cm^3
- Tumor measurements L [24]: 0.4 cm
- Tumor measurements W [24]: 0.3 cm
- Tumor volumes [24]: 0.02 cm^3
- Tumor volumes (Day 9, mouse M3, SCV-07 0.1 mg/kg sc): 0.00 cm^3
- Tumor measurements L [25]: 0.3 cm
- Tumor measurements W [25]: 0.3 cm
- Tumor volumes [25]: 0.01 cm^3
- Tumor measurements L [26]: 0.5 cm
- Tumor measurements W [26]: 0.5 cm
- Tumor volumes [26]: 0.06 cm^3
- Tumor measurements L [27]: 0.3 cm
- Tumor measurements W [27]: 0.3 cm
- Tumor volumes [27]: 0.01 cm^3
- Tumor measurements L [28]: 0.3 cm
- Tumor measurements W [28]: 0.3 cm
- Tumor volumes [28]: 0.01 cm^3
- Tumor measurements L [29]: 0.5 cm
- Tumor measurements W [29]: 0.5 cm
- Tumor volumes [29]: 0.06 cm^3
- Tumor measurements L [30]: 0.5 cm
- Tumor measurements W [30]: 0.5 cm
- Tumor volumes [30]: 0.06 cm^3
- Tumor measurements L [31]: 0.5 cm
- Tumor measurements W [31]: 0.5 cm
- Tumor volumes [31]: 0.06 cm^3
- IR (tumor volume inhibition rate) [32]: 51.2%
- Tumor Volume (Mean ± SD) [32]: 0.368 ± 0.223 cm^3
- IR (tumor volume inhibition rate) [33]: 37.7%
- Tumor Volume (Mean ± SD) [33]: 0.469 ± 0.199 cm^3
- IR (tumor volume inhibition rate) [34]: 61.3%
- Tumor Volume (Mean ± SD) [34]: 0.292 ± 0.169 cm^3
- IR (tumor volume inhibition rate) [35]: 54.9%
- Tumor Volume (Mean ± SD) [35]: 0.340 ± 0.195 cm^3
- Tumor measurements L [36]: 0.1 cm
- Tumor measurements W [36]: 0.1 cm
- Tumor volumes [36]: 5E−04 cm^3
- Tumor measurements L [37]: 1.0 cm
- Tumor measurements W [37]: 1.0 cm
- Tumor volumes [37]: 0.50 cm^3
- Tumor measurements L [38]: 1.0 cm
- Tumor measurements W [38]: 0.7 cm
- Tumor volumes [38]: 0.25 cm^3
- Tumor measurements L [39]: 1.0 cm
- Tumor measurements W [39]: 0.9 cm
- Tumor volumes [39]: 0.41 cm^3
- Tumor measurements L [40]: 1.0 cm
- Tumor measurements W [40]: 0.7 cm
- Tumor volumes [40]: 0.25 cm^3
- Tumor measurements L [41]: 1.0 cm
- Tumor measurements W [41]: 1.0 cm
- Tumor volumes [41]: 0.50 cm^3
- Tumor measurements L [42]: 0.9 cm
- Tumor measurements W [42]: 0.9 cm
- Tumor volumes [42]: 0.36 cm^3
